According to patent US9476099B2 (TRUSTEES OF DARTMOUTH COLLEGE, priority 2012, dated 2016):

Test system: gene promoters in NT2/D1-R1 control and DNMT3B knockdown cells
Test: Genome-wide promoter methylation analysis, HumanMethylation27 BeadChip (Table 15)
Assay type: cell-based, human
Conditions: sh-3b + 5aza
Procedure: DNA methylation analysis was performed in samples in triplicate using the […] […] assay with the HumanMethylation27 BeadChip ([…]) and the BeadChip was scanned on the BeadArray Reader ([…]), according to the manufacturer's instructions. Raw data was normalized and analyzed with Genome Studio software ([…]). The HumanMethylation27 BeadChip assays 27,578 CpGs covering more than 14,000 genes, mostly from promoter regions. […] Hierarchical clustering was performed as stated above. HumanMethylation27 BeadChip data and gene expression microarray data were submitted to NCBI GEO.

`Nc1ncn([C@H]2C[C@H](O)[C@@H](CO)O2)c(=O)n1` [5aza] was tested, and the “ABCC1 cg20158248 promoter methylation Mean” value was 0.458, the “ACP1 cg27226618 promoter methylation Mean” value was 0.490 and the “ADCY4 cg16761581 promoter methylation Mean” value was 0.297. The “ADRA2A cg26926521 promoter methylation Mean” value was 0.682, the “ALDH1A3 cg19224278 promoter methylation Mean” value was 0.310 and the “ALKBH4 cg07404418 promoter methylation Mean” value was 0.312. For the same molecule, the “ALX4 cg04549333 promoter methylation Mean” value was 0.880, the “ALX4 cg04970352 promoter methylation Mean” value was 0.645 and the “ALX4 cg19358442 promoter methylation Mean” value was 0.834. The “ANKRD13C cg19342782 promoter methylation Mean” value was 0.372, the “ANKRD45 cg15883716 promoter methylation Mean” value was 0.793 and the “APC cg16970232 promoter methylation Mean” value was 0.269. For the same molecule, the “BLOC1S2 cg26610808 promoter methylation Mean” value was 0.526, the “BTBD5 cg00660989 promoter methylation Mean” value was 0.214 and the “BTNL8 cg24024214 promoter methylation Mean” value was 0.781. The “C1QL1 cg13818573 promoter methylation Mean” value was 0.255, the “C1orf188 cg15731815 promoter methylation Mean” value was 0.321 and the “C10orf107 cg16063112 promoter methylation Mean” value was 0.230. For the same molecule, the “C14orf173 cg24404909 promoter methylation Mean” value was 0.248, the “C16orf60 cg17858663 promoter methylation Mean” value was 0.177 and the “C19orf4 cg07379574 promoter methylation Mean” value was 0.733. For the same molecule, the “C19orf22 cg18022193 promoter methylation Mean” value was 0.180, the “CAMK1G cg27337148 promoter methylation Mean” value was 0.715 and the “CD58 cg21039631 promoter methylation Mean” value was 0.325. The “CDKN2B cg04675937 promoter methylation Mean” value was 0.167, the “CDKN2B cg08390209 promoter methylation Mean” value was 0.150 and the “CDX1 cg15452204 promoter methylation Mean” value was 0.424. For the same molecule, the “CEACAM4 cg10237469 promoter methylation Mean” value was 0.430, the “CEACAM7 cg19623751 promoter methylation Mean” value was 0.616 and the “CGI-38 cg13067215 promoter methylation Mean” value was 0.274. The “CHD5 cg00282347 promoter methylation Mean” value was 0.682, the “CHMP2A cg14042128 promoter methylation Mean” value was 0.354 and the “COL11A1 cg12884406 promoter methylation Mean” value was 0.331. For the same molecule, the “COPS7B cg05422352 promoter methylation Mean” value was 0.338, the “CRSP7 cg24459023 promoter methylation Mean” value was 0.268 and the “CSPG3 cg06952310 promoter methylation Mean” value was 0.350. For the same molecule, the “CSTF2T cg06712026 promoter methylation Mean” value was 0.277, the “CTAGE1 cg02847216 promoter methylation Mean” value was 0.727 and the “CUL3 cg09509863 promoter methylation Mean” value was 0.309. For the same molecule, the “CYP4F12 cg25813714 promoter methylation Mean” value was 0.721, the “DCTD cg14892066 promoter methylation Mean” value was 0.171 and the “DDEF2 cg22190705 promoter methylation Mean” value was 0.187. The “DEFB118 cg03014957 promoter methylation Mean” value was 0.548, the “DNASE2 cg07955356 promoter methylation Mean” value was 0.207 and the “DPH1 cg11516377 promoter methylation Mean” value was 0.319. For the same molecule, the “DYRK1B cg18851831 promoter methylation Mean” value was 0.820, the “EIF2B3 cg16604218 promoter methylation Mean” value was 0.360 and the “ELSPBP1 cg19404979 promoter methylation Mean” value was 0.406. For the same molecule, the “ENOSF1 cg16112050 promoter methylation Mean” value was 0.724, the “EPN3 cg24006361 promoter methylation Mean” value was 0.739 and the “EREG cg19308222 promoter methylation Mean” value was 0.252. The “FAM111B cg13864937 promoter methylation Mean” value was 0.366, the “FLJ10726 cg14145762 promoter methylation Mean” value was 0.292 and the “FLJ11200 cg09001953 promoter methylation Mean” value was 0.335. The “FLJ23514 cg16404106 promoter methylation Mean” value was 0.436, the “FLRT3 cg23127998 promoter methylation Mean” value was 0.249 and the “FLT3LG cg01667384 promoter methylation Mean” value was 0.179. For the same molecule, the “FXYD7 cg22392666 promoter methylation Mean” value was 0.720, the “G10 cg02798801 promoter methylation Mean” value was 0.349 and the “GABRB2 cg16509658 promoter methylation Mean” value was 0.176. For the same molecule, the “GALNT4 cg16606638 promoter methylation Mean” value was 0.245, the “GAS8 cg03634997 promoter methylation Mean” value was 0.814 and the “GBX2 cg23095584 promoter methylation Mean” value was 0.268. The “GNAS cg27661264 promoter methylation Mean” value was 0.334, the “GRB10 cg26163537 promoter methylation Mean” value was 0.310 and the “GUP1 cg24938727 promoter methylation Mean” value was 0.441. For the same molecule, the “HACE1 cg23047681 promoter methylation Mean” value was 0.156, the “HGF cg06745740 promoter methylation Mean” value was 0.404 and the “HNRNPG-T cg22062068 promoter methylation Mean” value was 0.650. For the same molecule, the “HOXB4 cg25145670 promoter methylation Mean” value was 0.311, the “HRASLS cg08376864 promoter methylation Mean” value was 0.309 and the “HYPK cg00480356 promoter methylation Mean” value was 0.630. The “ICAM1 cg08607082 promoter methylation Mean” value was 0.149, the “IFI16 cg07463059 promoter methylation Mean” value was 0.386 and the “IFI44 cg07107453 promoter methylation Mean” value was 0.330. The “IFNA2 cg13235447 promoter methylation Mean” value was 0.480, the “IGF2AS cg20792294 promoter methylation Mean” value was 0.211 and the “IGFBP5 cg19008649 promoter methylation Mean” value was 0.264. For the same molecule, the “IGSF9 cg19111262 promoter methylation Mean” value was 0.576, the “IHH cg17178336 promoter methylation Mean” value was 0.504 and the “IL2RG cg01361446 promoter methylation Mean” value was 0.834. For the same molecule, the “IL18 cg11304234 promoter methylation Mean” value was 0.478, the “INPP5B cg10784030 promoter methylation Mean” value was 0.251 and the “ITGB3BP cg18464559 promoter methylation Mean” value was 0.121. The “KA21 cg23776012 promoter methylation Mean” value was 0.410, the “KCNA3 cg03483626 promoter methylation Mean” value was 0.208 and the “KCNAB3 cg14918082 promoter methylation Mean” value was 0.534. For the same molecule, the “KCNB2 cg11754206 promoter methylation Mean” value was 0.377, the “KCNK10 cg17671157 promoter methylation Mean” value was 0.820 and the “KLK7 cg19953406 promoter methylation Mean” value was 0.680. The “LAMB1 cg10064162 promoter methylation Mean” value was 0.295, the “LDHD cg24429836 promoter methylation Mean” value was 0.510 and the “LIG4 cg08216792 promoter methylation Mean” value was 0.266. The “LYNX1 cg24046110 promoter methylation Mean” value was 0.288, the “MC3R cg19226099 promoter methylation Mean” value was 0.784 and the “MGC26856 cg07684809 promoter methylation Mean” value was 0.260. The “MLNR cg02620013 promoter methylation Mean” value was 0.418, the “MPHOSPH6 cg16119274 promoter methylation Mean” value was 0.280 and the “MSX1 cg03199651 promoter methylation Mean” value was 0.204. For the same molecule, the “MYOD1 cg24322623 promoter methylation Mean” value was 0.650, the “NCKIPSD cg04244987 promoter methylation Mean” value was 0.242 and the “NDP cg11614809 promoter methylation Mean” value was 0.579. For the same molecule, the “NEFH cg16042149 promoter methylation Mean” value was 0.776, the “NEIL2 cg14329976 promoter methylation Mean” value was 0.226 and the “NME5 cg13707560 promoter methylation Mean” value was 0.911. For the same molecule, the “NME5 cg25507001 promoter methylation Mean” value was 0.671, the “NOC3L cg07270175 promoter methylation Mean” value was 0.464 and the “NOX4 cg17063929 promoter methylation Mean” value was 0.575. The “NPAS1 cg09628601 promoter methylation Mean” value was 0.303, the “NRXN1 cg10917619 promoter methylation Mean” value was 0.594 and the “OR1N1 cg14598387 promoter methylation Mean” value was 0.339. The “OR10J1 cg15700197 promoter methylation Mean” value was 0.444, the “PACS1 cg01663295 promoter methylation Mean” value was 0.329 and the “PCDHB13 cg14592099 promoter methylation Mean” value was 0.423. The “PCDHB13 cg24435562 promoter methylation Mean” value was 0.273, the “PCDHGA12 cg11647681 promoter methylation Mean” value was 0.623 and the “PCGF5 cg17001035 promoter methylation Mean” value was 0.664. For the same molecule, the “PEPD cg06546607 promoter methylation Mean” value was 0.229, the “PEX5L cg02430692 promoter methylation Mean” value was 0.322 and the “PI3 cg02442161 promoter methylation Mean” value was 0.625. The “PIGL cg05310071 promoter methylation Mean” value was 0.231, the “POU3F3 cg20291049 promoter methylation Mean” value was 0.268 and the “POU4F2 cg24199834 promoter methylation Mean” value was 0.231. For the same molecule, the “PTCH2 cg15329642 promoter methylation Mean” value was 0.576, the “PTPN5 cg17233601 promoter methylation Mean” value was 0.498 and the “RASGEF1A cg07871503 promoter methylation Mean” value was 0.574. The “RBPSUHL cg21835643 promoter methylation Mean” value was 0.665, the “REM1 cg12153542 promoter methylation Mean” value was 0.456 and the “REM1 cg26299767 promoter methylation Mean” value was 0.440. The “RLN3R1 cg12238343 promoter methylation Mean” value was 0.451, the “RPL39L cg07441272 promoter methylation Mean” value was 0.505 and the “RRM2B cg07125123 promoter methylation Mean” value was 0.288. The “RYR1 cg05471297 promoter methylation Mean” value was 0.272, the “S100A12 cg02813121 promoter methylation Mean” value was 0.719 and the “SCUBE2 cg01081263 promoter methylation Mean” value was 0.505. For the same molecule, the “SCUBE2 cg19237879 promoter methylation Mean” value was 0.493, the “SEMA3E cg08274234 promoter methylation Mean” value was 0.207 and the “SEMA6C cg01958916 promoter methylation Mean” value was 0.255. For the same molecule, the “SEPN1 cg21187265 promoter methylation Mean” value was 0.381.
